Measurements from patent publication US11578055B2, “Triazacyclododecansulfonamide (“TCD”)-based protein secretion inhibitors” (KEZAR LIFE SCIENCES, priority 2018, dated 2023).

Columns and labels:
[1] = In Vitro Microsome Stability Assay (rat); format: in vitro ADME; settings: rat liver microsomes, 30 min w/ NADPH
Procedure, shortened: (§1)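 Test article, added from a 0.25 mM DMSO stock, was incubated with liver microsomes (20 mg/mL stock) in 0.1 M potassium phosphate at 37° C, with the reaction started by NADPH. Samples were quenched with acetonitrile containing internal standard at 0 and 30 min and analysed by LC-MS/MS. Values are % remaining at 30 min versus 0 min, using IS-normalised AUC ratios.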

[2] = system: PD1 signal sequence plus 10 amino acids fused to Gaussia Luciferase (PD1-ss+10aa/Gaussia Luciferase); experiment: Dox Induced PD1-ss-Gluc Assay; format: cell-based; settings: 24 hr, Dox inducible, 293FRT/TO cells; read-out: 24 hr Dox Inducible PD1ssGluc 293FRT/TO: Mean IC50
Procedure, shortened: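 Stable Flp-In 293 T-REx line expressing the fusion under tetracycline-inducible control, plated the day before assay. Compound dilutions added with doxycycline and incubated at 37 °C, 5% CO2; unspecified stereocentres mean data refer to stereoisomer mixtures.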

[3] = system: multiple myeloma cell line NCl-H929; experiment: H929 Cell Viability Assay; format: cell-based, human; settings: Homo sapiens, NCI-H929, 48 h, H929, Celltiter-Glo
Procedure, shortened: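 NCI-H929 myeloma cells in RPMI 1640 with 10% FBS were treated with compound dilutions for 48 h at 37 °C, and viability was then read by CellTiter-Glo luminescence. Compounds drawn without stereochemistry were tested as stereoisomer mixtures.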

[4] = system: multiple myeloma cell line U266B1; experiment: U266 Cell Viability Assay; format: cell-based, human; settings: Homo sapiens, U-266; 48 hr, U266, Celltiter-Glo
Procedure, shortened: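 U266B1 myeloma cells in RPMI 1640 with 10% FBS were treated with compound dilutions for 48 h at 37° C, 5% CO2. Viability was read as CellTiter-Glo luminescence. Data for structures drawn without stereochemistry refer to stereoisomer mixtures.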

[5] = In Vitro Microsome Stability Assay (mouse); format: in vitro ADME; settings: mouse liver microsomes, 30 min w/ NADPH
Procedure, shortened: as §1

[6] = In Vitro Microsome Stability Assay (human); format: in vitro ADME; settings: human liver microsomes, 30 min w/ NADPH
Procedure, shortened: as §1

[7] = In Vitro Microsome Stability Assay (monkey); format: in vitro ADME; settings: monkey liver microsomes, 30 min w/ NADPH
Procedure, shortened: as §1

[8] = system: full length IL-2 (amino acids 1-153) fused to Gaussia Luciferase; experiment: Dox Induced IL2-FL-Gluc Assay; format: cell-based; settings: 24 hr, Dox inducible, 293FRT/TO cells; read-out: 24 hr Dox Inducible IL2FLGluc 293FRT/TO: Mean IC50
Procedure, shortened: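 Flp-In 293 T-REx stable line expressing full-length IL-2 (aa 1-153) with C-terminal Gaussia luciferase fusion under doxycycline-inducible control. Cells plated the day before; compound dilutions added in DMSO/media containing doxycycline, incubated at 37° C, 5% CO2.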

[9] = system: HER3 signal sequence plus 4 amino acids fused to Gaussia Luciferase (HER3-ss+4aa/Gaussia Luciferase); experiment: Dox Induced HER3-ss-Gluc Assay; format: cell-based; settings: 24 hr, doxycycline induced, Flp-In 293 T-REx cells; read-out: 24 hr Dox Inducible Her3(ss + 4) Gluc 293FRT/TO: Mean 1050
Excerpt: FIp-In 293 T-REx™ cells were transfected with pcDNA™5/FRT/TO plasmid inserted with cDNA encoding Gaussia Luciferase fused to the 3′ end of cDNA encoding HER3 signal sequence plus 4 amino acids (N-[…]-C) (SEQ ID NO: 2). Transfected cells were selected for resistance to the selectable markers Hygromycin and Blasticidin to create a stable cell line that contained the HER3-ss+4aa/Gaussia Luciferase cDNA insert whose expression was regulated under the T-REx™ system. The day before assay, cells were trypsinized and plated in 384-well tissue culture plates. The next day, compound dilutions in DMSO/media containing doxycycline were added to the wells and incubated at 37° C., 5% CO2.
For chemical structures that include one or more stereoisomers, but are illustrated without indicating stereochemistry, the assay data refers to a mixture of stereoisomers.

[10] = system: full length TNFα (amino acids 1-233) fused to Gaussia Luciferase; experiment: Dox Induced TNFα-FL-Gluc Assay; format: cell-based; settings: 24 hr, Dox inducible, 293FRT/TO cells; read-out: 24 hr Dox Inducible TNFaFLGluc 293FRT/TO: Mean IC50
Procedure, shortened: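 Stable Flp-In 293 T-REx line expressing doxycycline-inducible full-length TNFα fused to Gaussia luciferase; cells plated the day before, then treated with compound dilutions in doxycycline-containing medium at 37° C, 5% CO2. Unspecified stereocentres mean stereoisomer mixtures were tested.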

Liver Microsome Stability-% Left after 30 min w/ NADPH (%) Rat [1] [%]	IC50 [2] [nM]	EC50 [3] [nM]	EC50 [4] [nM]	Liver Microsome Stability-% Left after 30 min w/ NADPH (%) Mouse [5] [%]	Liver Microsome Stability-% Left after 30 min w/ NADPH (%) Human [6] [%]	Liver Microsome Stability-% Left after 30 min w/ NADPH (%) Monkey [7] [%]	IC50 [8] [nM]	IC50 [9] [nM]	IC50 [10] [nM]	SMILES
0.08	1150	9360	> 25000	0.18	0.02	0.10	2330	1710	> 25000	CC(=O)N(C)c1ccc(CNS(=O)(=O)N2CCCN(CC3CCCCC3)CCCN(S(=O)(=O)c3ccc(N(C)C)cc3)C[C@H](C)C2)cc1 [A192, N-{4-[({[(3S)-9-(cyclohexylmethyl)-5-[4-(dimethylamino)benzenesulfonyl]-3-methyl-1,5,9-triazacyclododecan-1-yl]sulfonyl}amino)methyl]phenyl}-N-methylacetamide]
11.3	23.8	6810	> 25000	10.1	34.2	7.72	81.8	50.9	748	COc1cc(F)ccc1N1CCN(S(=O)(=O)N2CCCN(CC3CCCCC3)CCCN(S(=O)(=O)c3ccc(N(C)C)cc3)CC3(CC3)C2)CC1 [A193]
59.2	261	> 25000	> 25000	68.5	63.6	65.0	402	303	> 25000	COc1cc(F)cc(N2CCN(S(=O)(=O)N3CCCN(CC4CCCCC4)CCCN(S(=O)(=O)c4ccc(N(C)C)cc4)C[C@H](C)C3)C[C@@H]2C)c1 [A194]
63.3	211	> 25000	> 25000	58.5	53.6	32.8	668	382	11200	COc1cc(F)cc(N2CCN(S(=O)(=O)N3CCCN(CC4CCCCC4)CCCN(S(=O)(=O)c4ccc(N(C)C)cc4)CC4(CC4)C3)C[C@H]2C)c1 [A195]
76.6	34.2	4130	> 25000	65.4	70.7	92.8	95.5	77.5	666	COc1cc(F)cc(N2[C@H](C)CN(S(=O)(=O)N3CCCN(CC4CCCCC4)CCCN(S(=O)(=O)c4ccc(N(C)C)cc4)C[C@H](C)C3)C[C@@H]2C)c1 [A197]
61.4	18.5	1170	> 25000	68.2	39.2	65.1	53.3	44.1	373	C[C@H]1CN(S(=O)(=O)c2ccc(N(C)C)cc2)CCCN(CC2CCCCC2)CCCN(S(=O)(=O)N2CCN(c3ccccc3Cl)CC2)C1 [A198, 4-{[(3S)-5-{[4-(2-chlorophenyl)piperazin-1-yl]sulfonyl}-9-(cyclohexylmethyl)-3-methyl-1,5,9-triazacyclododecan-1-yl]sulfonyl}-N,N-dimethylaniline]
28.3	80.8	> 25000	> 25000	23.7	8.0	25.5	162	132	1420	COc1ccc(N2CCN(S(=O)(=O)N3CCCN(CC4CCCCC4)CCCN(S(=O)(=O)c4ccc(N(C)C)cc4)C[C@H](C)C3)CC2)cc1 [A199, 4-{[(3S)-9-(cyclohexylmethyl)-5-{[4-(4-methoxyphenyl)piperazin-1-yl]sulfonyl}-3-methyl-1,5,9-triazacyclododecan-1-yl]sulfonyl}-N,N-dimethylaniline]
83.1	11.2	436	> 25000	71.9	78.1	73.9	27.9	29.1	285	COc1cc(F)cc(N2[C@H](C)CN(S(=O)(=O)N3CCCN(CC4CCCCC4)CCCN(S(=O)(=O)c4ccc(N(C)C)cc4)C[C@H](C)C3)C[C@H]2C)c1 [A200]
35.4	118	> 25000	> 25000	39.1	32.8	26.5	283	211	7090	COc1cccc(N2CCN(S(=O)(=O)N3CCCN(CC4CCCCC4)CCCN(S(=O)(=O)c4ccc(N(C)C)cc4)C[C@H](C)C3)CC2)c1 [A201, 4-{[(3S)-9-(cyclohexylmethyl)-5-{[4-(3-methoxyphenyl)piperazin-1-yl]sulfonyl}-3-methyl-1,5,9-triazacyclododecan-1-yl]sulfonyl}-N,N-dimethylaniline]
50.8	56.6	2910	> 25000	55.0	13.3	38.3	176	130	2050	COc1ccc(N2CCN(S(=O)(=O)N3CCCN(CC4CCCCC4)CCCN(S(=O)(=O)c4ccc(N(C)C)cc4)C[C@H](C)C3)CC2)cc1F [A202, 4-{[(3S)-9-(cyclohexylmethyl)-5-{[4-(3-fluoro-4-methoxyphenyl)piperazin-1-yl]sulfonyl}-3-methyl-1,5,9-triazacyclododecan-1-yl]sulfonyl}-N,N-dimethylaniline]
78.7	14.8	396	> 25000	80.3	83.4	77.9	30.4	34.1	434	COc1cc(F)ccc1N1CCN(S(=O)(=O)N2CCCN([C@@H](C)C3CCCCC3)CCCN(S(=O)(=O)c3ccc(N(C)C)cc3)C[C@H](C)C2)CC1 [A203]
